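GI50 = concentration required for 50% inhibition of growth. TGI denotes the concentration required for complete inhibition of growth.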
Key:
Assay in all cases: NCI anticancer screen, dose series, 384-well format
786-0 renal = system: 786-0 renal
A498 renal = system: A498 renal
A549 NSCLC = system: A549 NSCLC
ACHN renal = system: ACHN renal
BT-549 breast = system: BT-549 breast
CAKI-1 renal = system: CAKI-1 renal
CCRF-CEM leukemia = system: CCRF-CEM leukemia
COLO 205 colon = system: COLO 205 colon
DU-145 prostate = system: DU-145 prostate
EKVX NSCLC = system: EKVX NSCLC
HCC-2998 colon = system: HCC-2998 colon
HCT-15 colon = system: HCT-15 colon
HL-60(TB) leukemia = system: HL-60(TB) leukemia
HOP-62 NSCLC = system: HOP-62 NSCLC
HOP-92 NSCLC = system: HOP-92 NSCLC
HS 578T breast = system: HS 578T breast
HT29 colon = system: HT29 colon
IGROV1 ovarian = system: IGROV1 ovarian
K-562 leukemia = system: K-562 leukemia
KM12 colon = system: KM12 colon
LOX IMVI melanoma = system: LOX IMVI melanoma
M14 melanoma = system: M14 melanoma
MALME-3M melanoma = system: MALME-3M melanoma
MCF7 breast = system: MCF7 breast
MDA-MB-231 breast = system: MDA-MB-231 breast
MDA-MB-435 melanoma = system: MDA-MB-435 melanoma
MDA-MB-468 breast = system: MDA-MB-468 breast
MOLT-4 leukemia = system: MOLT-4 leukemia
NCI-H226 lung = system: NCI-H226 lung
NCI-H23 lung = system: NCI-H23 lung
NCI-H322M lung = system: NCI-H322M lung
NCI-H460 NSCLC = system: NCI-H460 NSCLC
NCI-H522 lung = system: NCI-H522 lung
NCI/ADR-RES ovarian = system: NCI/ADR-RES ovarian
OVCAR-3 ovarian = system: OVCAR-3 ovarian
OVCAR-4 ovarian = system: OVCAR-4 ovarian
OVCAR-5 ovarian = system: OVCAR-5 ovarian
OVCAR-8 ovarian = system: OVCAR-8 ovarian
PC-3 prostate = system: PC-3 prostate
RPMI-8226 leukemia = system: RPMI-8226 leukemia
RXF 393 renal = system: RXF 393 renal
SF-268 CNS = system: SF-268 CNS
SF-295 CNS = system: SF-295 CNS
SF-539 CNS = system: SF-539 CNS
SK-MEL-28 melanoma = system: SK-MEL-28 melanoma
SK-MEL-5 melanoma = system: SK-MEL-5 melanoma
SK-OV-3 ovarian = system: SK-OV-3 ovarian
SN12C renal = system: SN12C renal
SNB-19 CNS = system: SNB-19 CNS
SNB-75 CNS = system: SNB-75 CNS
SR leukemia = system: SR leukemia
SW-620 colon = system: SW-620 colon
T-47D breast = system: T-47D breast
TK-10 renal = system: TK-10 renal
U251 glioblastoma = system: U251 glioblastoma
UACC-257 melanoma = system: UACC-257 melanoma
UACC-62 melanoma = system: UACC-62 melanoma
UO-31 renal = system: UO-31 renal

`Cc1ccc(NC(=O)c2ccc(CN3CCN(C)CC3)cc2)cc1Nc1nc(-c2cccnc2)cs1` was tested. Which GI50 ([…]-0 renal) did it give?
Its GI50 is 1.79 µM.

What about the TGI (786-0 renal) of the same compound?
Its TGI is 3.66 µM.

What about the GI50 (A498 renal) of the same compound?
Its GI50 is 2.42 µM.

What about the TGI (A498 renal) of the same compound?
Its TGI is 5.52 µM.

And the GI50 (A549 NSCLC)?
The GI50 was 5.25 µM.

And the TGI (A549 NSCLC)?
Its TGI is 17.3 µM.

What about the GI50 (ACHN renal) of the same compound?
Its GI50 is 3.31 µM.

What about the TGI (ACHN renal) of the same compound?
The TGI was 9.96 µM.

And the GI50 (BT-549 breast)?
Its GI50 is 4.12 µM.

What about the TGI (BT-549 breast) of the same compound?
Its TGI is 14.4 µM.

What about the GI50 (CAKI-1 renal) of the same compound?
Its GI50 is 3.9 µM.

What about the TGI (CAKI-1 renal) of the same compound?
The TGI was 13 µM.

What about the GI50 (CCRF-CEM leukemia) of the same compound?
The GI50 was 1.54 µM.

What about the TGI (CCRF-CEM leukemia) of the same compound?
The TGI was 3.09 µM.

What about the GI50 (COLO 205 colon) of the same compound?
The GI50 was 3.64 µM.

And the TGI (COLO 205 colon)?
Its TGI is 11 µM.

And the GI50 (DU-145 prostate)?
Its GI50 is 12 µM.

And the TGI (DU-145 prostate)?
Its TGI is 24.4 µM.

And the GI50 (EKVX NSCLC)?
Its GI50 is 4.22 µM.

What about the TGI (EKVX NSCLC) of the same compound?
The TGI was 15.4 µM.

What about the GI50 (HCC-2998 colon) of the same compound?
The GI50 was 1.84 µM.

And the TGI (HCC-2998 colon)?
Its TGI is 3.68 µM.

What about the GI50 (HCT-15 colon) of the same compound?
The GI50 was 1.69 µM.

What about the TGI (HCT-15 colon) of the same compound?
The TGI was 3.2 µM.

And the GI50 (HL-60(TB) leukemia)?
The GI50 was 1.74 µM.

What about the TGI (HL-60(TB) leukemia) of the same compound?
The TGI was 3.16 µM.

What about the GI50 (HOP-62 NSCLC) of the same compound?
The GI50 was 4.31 µM.

What about the TGI (HOP-62 NSCLC) of the same compound?
Its TGI is 15.4 µM.

And the GI50 (HOP-92 NSCLC)?
The GI50 was 3.33 µM.

And the TGI (HOP-92 NSCLC)?
Its TGI is 12.2 µM.

What about the GI50 (HS 578T breast) of the same compound?
Its GI50 is 1.73 µM.

What about the TGI (HS 578T breast) of the same compound?
Its TGI is 3.87 µM.

And the GI50 (HT29 colon)?
Its GI50 is 1.72 µM.

And the TGI (HT29 colon)?
The TGI was 3.32 µM.

And the GI50 (IGROV1 ovarian)?
Its GI50 is 11.2 µM.

And the TGI (IGROV1 ovarian)?
Its TGI is 23.3 µM.

What about the GI50 (K-562 leukemia) of the same compound?
The GI50 was 0.283 µM.

And the TGI (K-562 leukemia)?
Its TGI is 1.12 µM.

What about the GI50 (KM12 colon) of the same compound?
Its GI50 is 3.11 µM.

What about the TGI (KM12 colon) of the same compound?
Its TGI is 10.3 µM.

And the GI50 (LOX IMVI melanoma)?
Its GI50 is 1.91 µM.

What about the TGI (LOX IMVI melanoma) of the same compound?
The TGI was 3.52 µM.

What about the GI50 (M14 melanoma) of the same compound?
Its GI50 is 2.07 µM.

And the TGI (M14 melanoma)?
The TGI was 4.11 µM.

And the GI50 (MALME-3M melanoma)?
Its GI50 is 1.64 µM.

And the TGI (MALME-3M melanoma)?
The TGI was 3.16 µM.

And the GI50 (MCF7 breast)?
Its GI50 is 1.94 µM.

What about the TGI (MCF7 breast) of the same compound?
Its TGI is 5.95 µM.

What about the GI50 (MDA-MB-231 breast) of the same compound?
The GI50 was 3.38 µM.

What about the TGI (MDA-MB-231 breast) of the same compound?
Its TGI is 11.7 µM.

What about the GI50 (MDA-MB-435 melanoma) of the same compound?
The GI50 was 6.47 µM.

And the TGI (MDA-MB-435 melanoma)?
The TGI was 18.9 µM.

What about the GI50 (MDA-MB-468 breast) of the same compound?
The GI50 was 1.65 µM.

What about the TGI (MDA-MB-468 breast) of the same compound?
The TGI was 3.77 µM.

And the GI50 (MOLT-4 leukemia)?
The GI50 was 1.55 µM.

What about the TGI (MOLT-4 leukemia) of the same compound?
Its TGI is 2.95 µM.

What about the GI50 (NCI-H226 lung) of the same compound?
Its GI50 is 3.84 µM.

What about the TGI (NCI-H226 lung) of the same compound?
The TGI was 15.9 µM.

And the GI50 (NCI-H23 lung)?
Its GI50 is 2.9 µM.

What about the TGI (NCI-H23 lung) of the same compound?
The TGI was 11.9 µM.

What about the GI50 (NCI-H322M lung) of the same compound?
Its GI50 is 3.39 µM.

And the TGI (NCI-H322M lung)?
Its TGI is 11.4 µM.

And the GI50 (NCI-H460 NSCLC)?
The GI50 was 2.16 µM.

And the TGI (NCI-H460 NSCLC)?
Its TGI is 4.71 µM.

What about the GI50 (NCI-H522 lung) of the same compound?
Its GI50 is 3.83 µM.

And the TGI (NCI-H522 lung)?
Its TGI is 13.9 µM.

What about the GI50 (NCI/ADR-RES ovarian) of the same compound?
The GI50 was 5.47 µM.

What about the TGI (NCI/ADR-RES ovarian) of the same compound?
The TGI was 16.6 µM.

And the GI50 (OVCAR-3 ovarian)?
The GI50 was 2.24 µM.

And the TGI (OVCAR-3 ovarian)?
Its TGI is 5.16 µM.

What about the GI50 (OVCAR-4 ovarian) of the same compound?
The GI50 was 2.59 µM.

What about the TGI (OVCAR-4 ovarian) of the same compound?
The TGI was 11.1 µM.

And the GI50 (OVCAR-5 ovarian)?
The GI50 was 3.4 µM.

What about the TGI (OVCAR-5 ovarian) of the same compound?
Its TGI is 9.15 µM.

What about the GI50 (OVCAR-8 ovarian) of the same compound?
The GI50 was 3.54 µM.

And the TGI (OVCAR-8 ovarian)?
The TGI was 12.5 µM.

And the GI50 (PC-3 prostate)?
Its GI50 is 3.25 µM.

And the TGI (PC-3 prostate)?
The TGI was 9.72 µM.

What about the GI50 (RPMI-8226 leukemia) of the same compound?
Its GI50 is 1.42 µM.

What about the TGI (RPMI-8226 leukemia) of the same compound?
Its TGI is 2.78 µM.

What about the GI50 (RXF 393 renal) of the same compound?
The GI50 was 1.54 µM.

What about the TGI (RXF 393 renal) of the same compound?
Its TGI is 2.98 µM.

What about the GI50 (SF-268 CNS) of the same compound?
The GI50 was 4.08 µM.

What about the TGI (SF-268 CNS) of the same compound?
Its TGI is 14 µM.

And the GI50 (SF-295 CNS)?
The GI50 was 1.84 µM.

And the TGI (SF-295 CNS)?
Its TGI is 3.32 µM.

And the GI50 (SF-539 CNS)?
The GI50 was 1.5 µM.

And the TGI (SF-539 CNS)?
Its TGI is 3.19 µM.

And the GI50 (SK-MEL-28 melanoma)?
The GI50 was 1.91 µM.

And the TGI (SK-MEL-28 melanoma)?
Its TGI is 3.42 µM.

And the GI50 (SK-MEL-5 melanoma)?
Its GI50 is 1.55 µM.

And the TGI (SK-MEL-5 melanoma)?
Its TGI is 3.15 µM.

And the GI50 (SK-OV-3 ovarian)?
The GI50 was 3.89 µM.

What about the TGI (SK-OV-3 ovarian) of the same compound?
The TGI was 12.3 µM.

And the GI50 (SN12C renal)?
The GI50 was 12.7 µM.

And the TGI (SN12C renal)?
Its TGI is 25.3 µM.

What about the GI50 (SNB-19 CNS) of the same compound?
Its GI50 is 10.6 µM.

And the TGI (SNB-19 CNS)?
The TGI was 22.5 µM.

And the GI50 (SNB-75 CNS)?
Its GI50 is 3.7 µM.

What about the TGI (SNB-75 CNS) of the same compound?
The TGI was 12 µM.

And the GI50 (SR leukemia)?
Its GI50 is 1.53 µM.

And the TGI (SR leukemia)?
Its TGI is 2.87 µM.

What about the GI50 (SW-620 colon) of the same compound?
The GI50 was 2.17 µM.

And the TGI (SW-620 colon)?
The TGI was 5.13 µM.

What about the GI50 (T-47D breast) of the same compound?
Its GI50 is 1.76 µM.

What about the TGI (T-47D breast) of the same compound?
Its TGI is 5.2 µM.

What about the GI50 (TK-10 renal) of the same compound?
The GI50 was 12.2 µM.

And the TGI (TK-10 renal)?
Its TGI is 24.7 µM.

What about the GI50 (U251 glioblastoma) of the same compound?
The GI50 was 2.36 µM.

And the TGI (U251 glioblastoma)?
The TGI was 5.39 µM.

And the GI50 (UACC-257 melanoma)?
Its GI50 is 1.82 µM.

What about the TGI (UACC-257 melanoma) of the same compound?
Its TGI is 3.37 µM.

What about the GI50 (UACC-62 melanoma) of the same compound?
Its GI50 is 1.75 µM.

What about the TGI (UACC-62 melanoma) of the same compound?
Its TGI is 3.64 µM.

What about the GI50 (UO-31 renal) of the same compound?
The GI50 was 5.43 µM.

What about the TGI (UO-31 renal) of the same compound?
The TGI was 17.4 µM.

— PubChem BioAssay (NCI)
